# Results as given in ChEMBL document CHEMBL1149537, “Design and synthesis of 1,2-dithiolane derivatives and evaluation of their neuroprotective activity” (Bioorg Med Chem Lett, 2007).
# Test system: HT-22
# Experiment: Neuroprotective activity against glutamate-induced damage in mouse HT22 cells after 24 hrs
# Assay type: functional, cell-based
# Conditions: HT-22, 24 h
row,SMILES,EC50 [µM]
1,COc1ccc(-c2nnc(CCCCC3CCSS3)o2)cc1OC (stereo not given),> 10
2,O=C(CCCCC(S)CCS)NCCc1ccc(O)c(O)c1 (stereo not given),> 10
3,COc1ccc(CCn2nnnc2CCCCC2CCSS2)cc1OC (stereo not given),> 10
4,COc1ccc(CCc2nnc(CCCCC3CCSS3)o2)cc1OC (stereo not given),> 10
5,COc1ccc(-c2noc(CCCCC3CCSS3)n2)cc1OC (stereo not given),> 10
6,Oc1ccc(CCn2nnnc2CCCCC2CCSS2)cc1O (stereo not given),2.99
7,Oc1ccc(-c2cn(CCCCCC3CCSS3)nn2)cc1O (stereo not given),6.23
8,COc1ccc(CCNC(=O)CCCCC2CCSS2)cc1OC (stereo not given),> 10
9,COc1ccc(-c2noc(CCCCC(S)CCS)n2)cc1OC (stereo not given),> 10
10,COc1ccc(-c2csc(CCCCC3CCSS3)n2)cc1OC (stereo not given),> 10
11,COc1ccc(CCn2nnnc2CCCCC(S)CCS)cc1OC (stereo not given),> 10
12,COc1ccc(-c2cn(CCCCCC3CCSS3)nn2)cc1OC (stereo not given),> 10
13,Oc1ccc(CCc2nnc(CCCCC3CCSS3)o2)cc1O (stereo not given),4.21
14,O=C(CCCCC1CCSS1)NCCc1ccc(O)c(O)c1 (stereo not given),> 10
15,Oc1ccc(-c2noc(CCCCC3CCSS3)n2)cc1O (stereo not given),3.63
